{"source": "paper PMC8614999", "about": "“A Comparative Analysis of Punicalagin Interaction with PDIA1 and PDIA3 by Biochemical and Computational Approaches” (Biomedicines, 2021)", "key": {"[1]": {"target": "T1, PDIA1 (Homo sapiens, UniProt P07237)", "T1 construct": "The pOLR130 plasmid encoding mature human PDIA1 with an N-terminal His6x-tag; His6 (N); made in house; host or cells: E. coli BL21", "T1 sequence (P07237 18-508)": "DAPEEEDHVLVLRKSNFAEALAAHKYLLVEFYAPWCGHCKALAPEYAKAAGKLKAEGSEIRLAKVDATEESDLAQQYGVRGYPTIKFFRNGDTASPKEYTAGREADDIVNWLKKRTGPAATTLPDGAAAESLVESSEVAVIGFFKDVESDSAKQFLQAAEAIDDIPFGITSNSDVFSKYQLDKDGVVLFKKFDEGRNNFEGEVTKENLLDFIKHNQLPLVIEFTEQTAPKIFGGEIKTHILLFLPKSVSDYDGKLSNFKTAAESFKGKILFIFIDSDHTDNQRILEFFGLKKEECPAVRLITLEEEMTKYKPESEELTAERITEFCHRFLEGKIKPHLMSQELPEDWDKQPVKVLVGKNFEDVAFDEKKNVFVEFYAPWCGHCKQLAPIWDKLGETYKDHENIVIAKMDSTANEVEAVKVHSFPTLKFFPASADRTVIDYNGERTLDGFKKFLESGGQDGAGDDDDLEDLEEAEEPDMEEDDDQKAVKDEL", "assay": "Tryptophan fluorescence quenching titration, PDIA1", "assay_type": "binding", "settings": "for Stern–Volmer constant KSV: 0.1 × 10^−6 M protein; for Stern–Volmer constant KSV / Kd: pH 7.4, 25 °C; for Kd: fluorescence quenching", "procedure": "(§1) Protein-ligand interactions were evaluated according to the fluorescence quenching titration method using a SPEX-FluoroMax spectrofluorometer (Horiba Scientific, Piscataway, NJ, USA). Emission spectra were recorded from 300 to 400 nm with an excitation wavelength set at 290 nm. The emission slit width was fixed to provide a 2 nm bandpass for all experiments. Scan speed was set at 120 nm min^−1. A total of 50 µM PDIA1 and PDIA3 stock solutions were reduced by adding DTT 5 mM. […] The titrations were performed by stepwise additions, at 5 min time intervals, of punicalagin solution from 0 to 4 µM (punicalagin 0.2 mM in PBS pH 7.4 freshly prepared from a 5 mM stock solution in water). Blank spectra for each experiment (no protein added) were performed in parallel for background determination. The emission spectrum of the protein was recorded three times, and the average reading values were then used for quenching analyses as already described.\n(§2) Quenching of intrinsic tryptophan fluorescence at 338 nm has been analyzed by Stern–Volmer equation (Fo/F = 1 + KSV[L]), where F and F0 are the fluorescence intensity, respectively with or without ligand (L), and KSV is the Stern–Volmer constant value. Based on obtained results, punicalagin is able to quench the fluorescence of both proteins with a Stern–Volmer constant always greater than 1.0 × 10^4 M^−1 (Figure 2B and Table 1). […] In order to further characterize the binding process, data were analyzed using the equation described by Bi et al. and the reiterative calculation process described by Sun et al., providing an estimation of the Kd values (Table 1). Punicalagin binds both PDIAs in the micro-molar order of magnitude, showing a slightly greater affinity toward PDIA3, which tryptophan residues appear more quenchable upon punicalagin binding."}, "[2]": {"target": "T2, PDIA3 (Homo sapiens, UniProt P30101)", "T2 construct": "Mature human recombinant PDIA3 protein was expressed and purified; made in house", "T2 sequence (P30101 25-505)": "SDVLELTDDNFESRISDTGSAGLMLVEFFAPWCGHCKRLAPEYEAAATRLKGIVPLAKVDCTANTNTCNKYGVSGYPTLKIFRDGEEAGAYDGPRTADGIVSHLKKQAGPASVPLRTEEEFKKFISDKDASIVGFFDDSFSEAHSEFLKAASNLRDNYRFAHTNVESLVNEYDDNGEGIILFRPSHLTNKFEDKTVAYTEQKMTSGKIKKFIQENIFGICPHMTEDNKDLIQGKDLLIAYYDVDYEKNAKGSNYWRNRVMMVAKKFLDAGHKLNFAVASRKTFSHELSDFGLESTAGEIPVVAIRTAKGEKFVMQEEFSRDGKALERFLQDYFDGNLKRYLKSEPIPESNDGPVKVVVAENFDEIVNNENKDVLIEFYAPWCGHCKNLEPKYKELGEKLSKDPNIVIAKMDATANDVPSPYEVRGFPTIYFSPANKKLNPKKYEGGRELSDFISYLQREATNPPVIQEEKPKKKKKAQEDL", "assay": "Tryptophan fluorescence quenching titration, PDIA3", "assay_type": "binding", "settings": "for Stern–Volmer constant KSV: 0.1 × 10^−6 M protein; for Stern–Volmer constant KSV / Kd: pH 7.4, 25 °C; for Kd: fluorescence quenching", "procedure": "as §1, §2"}, "[3]": {"target": "T1, PDIA1", "assay": "Isothermal titration calorimetry, PDIA1", "assay_type": "binding", "settings": "ITC, PDIA1 reduced form, 25 °C", "procedure": "(§3) Punicalagin interaction with PDIA3 and PDIA1 was investigated using isothermal titration calorimetry (ITC) with a MicroCal ITC200 (Malvern Instruments, Malvern, UK). […] Protein solution was loaded in the sample cell (0.2 mL), and the syringe was filled with punicalagin 250 µM dissolved in the same buffer. A total of 20 ligand aliquots (the first aliquot of 0.4 µL in 0.8 s and the other 19 aliquots of 2 µL in 4 s) were gradually added to the sample cell at intervals of 200 s each other to allow baseline recovery. The syringe stirring speed was set at 800 rpm. Protein and punicalagin solutions were thoroughly degassed on the MicroCal’s Thermovac machine before loading to avoid air bubble formation during the titration. Data analyses were performed by Origin software version 8.0 (OriginLab, Northampton, MA, USA). The heat of dilution for the ligand was determined in parallel, and this value was subtracted from the integrated data before curve fitting. The integration of the area under each heat burst curve was determined. All injection heats as a function of the molar ratio were plotted and analyzed using the one set of sites model to provide the dissociation constants."}, "[4]": {"target": "T2, PDIA3", "assay": "Isothermal titration calorimetry, PDIA3", "assay_type": "binding", "settings": "ITC, PDIA3 reduced form, 25 °C", "procedure": "as §3"}, "[5]": {"target": "T1, PDIA1", "assay": "Differential scanning calorimetry thermal denaturation, PDIA1", "assay_type": "binding", "settings": "reduced PDIA1 5 µM, punicalagin 25 µM", "procedure": "(§4) Protein stability in solution was assayed by differential scanning calorimetry (DSC) with a Microcal VP-DSC (Microcal, Northampton, MA, USA) testing both proteins. […] The reference cell was filled with protein-free buffer. A heating rate of 60 °C h^−1 was set, and the measurement cell worked under an excess pressure of 0.2 kPa to avoid air bubble formation during the heating. The heat absorption during the denaturation process was measured by subtracting the instrumental baseline from the sample trace and normalizing for protein concentration. To test the effect of the ligand on protein stability, analysis was also performed on both proteins in the presence of punicalagin (25 µM final concentration). The melting points (Tm, temperature at which excess heat capacity reaches a maximum) were directly observable from the thermogram. Nevertheless, data deconvolution using the Origin software provided by MicroCal was necessary to obtain Tm values."}, "[6]": {"target": "T2, PDIA3", "assay": "Differential scanning calorimetry thermal denaturation, PDIA3", "assay_type": "binding", "settings": "reduced PDIA3 5 µM, punicalagin 25 µM", "procedure": "as §4"}, "[7]": {"target": "T1, PDIA1", "assay": "Disulfide reductase activity with di-E-GSSG, PDIA1", "assay_type": "biochemical", "settings": "PDIA1, di-E-GSSG substrate", "procedure": "(§5) PDIAs disulfide reductase activity was monitored by using di-eosin glutathione disulfide (di-E-GSSG) as a fluorogenic substrate of PDIAs. Di-E-GSSG was synthesized by the reaction of eosin isothiocyanate with oxidized glutathione (GSSG) according to the method of Raturi and Mutus with some modifications. Protein activity was evaluated by monitoring the emission fluorescence increase (λem = 545 nm and λex = 525 nm), and the effect of punicalagin (concentration ranging from 0.2 to 50 µM) was tested. Inhibition constants were extrapolated by GraphPad Prism 8.0 software (GraphPad Software, San Diego, CA, USA), plotting the obtained data as logarithm dose-response curves.\n(§6) Punicalagin effects have also been studied on the enzymatic activity of PDIA3 and PDIA1. It is well known that both proteins catalyze oxidoreductase and isomerase reactions involving thiol groups and disulfide bonds. PDIs’ reductase activity was evaluated using di-E-GSSG as fluorogenic substrate and was calculated as the initial velocity in fluorescence increased due to the reduction in the fluorogenic substrate. […] For comparison purposes, the punicalagin inhibitory effect was extended to PDIA1. Results were analyzed as logarithmic dose response, and the half-maximal inhibitory concentrations (IC50) were evaluated (Figure 4)."}, "[8]": {"target": "T2, PDIA3", "assay": "Disulfide reductase activity with di-E-GSSG, PDIA3", "assay_type": "biochemical", "settings": "PDIA3, di-E-GSSG substrate", "procedure": "as §5, §6"}, "[9]": {"target": "T2, PDIA3", "set-up": "method as in PMID 29425676", "settings": "PDIA3 reductase activity, non-competitive inhibitor; cited from earlier work"}, "[10]": {"set-up": "method as in printed", "settings": "background statement, ref not given; cited from earlier work"}}, "data": [{"compound": "O=C1O[C@H]2[C@@H]3OC(=O)c4cc(O)c(O)c(O)c4-c4c(O)c(O)c5oc(=O)c6c(c(O)c(O)c7oc(=O)c4c5c76)-c4c(cc(O)c(O)c4O)C(=O)OC[C@H]3OC(O)[C@@H]2OC(=O)c2cc(O)c(O)c(O)c2-c2c1cc(O)c(O)c2O", "note": "(mixture of isomers) [punicalagin]", "values": [{"measurement": "Quenching constant Kq", "setting": "[1]; PDIA1, KSV = Kqτ, τ in the order of 1.0 × 10^−8 s", "result": "greater than 1.0 × 10^10 M^1s^−1"}, {"measurement": "Stern–Volmer constant (bound stated in text)", "setting": "[1]; PDIA1, both proteins always greater", "result": "greater than 1.0 × 10^4 M^−1"}, {"measurement": "Stern–Volmer constant KSV", "setting": "[1]; PDIA1 not reduced form", "result": "183.2 ± 2.7", "unit": "M^−1 × 10^3"}, {"measurement": "Stern–Volmer constant KSV", "setting": "[1]; PDIA1 reduced form", "result": "97.9 ± 2.1", "unit": "M^−1 × 10^3"}, {"measurement": "Kd", "setting": "[1]; PDIA1 not reduced form", "result": 4.9, "unit": "µM"}, {"measurement": "Kd", "setting": "[1]; PDIA1 reduced form", "result": 11.9, "unit": "µM"}, {"measurement": "Quenching constant Kq", "setting": "[2]; PDIA3, KSV = Kqτ, τ in the order of 1.0 × 10^−8 s", "result": "greater than 1.0 × 10^10 M^1s^−1"}, {"measurement": "Stern–Volmer constant (bound stated in text)", "setting": "[2]; PDIA3, both proteins always greater", "result": "greater than 1.0 × 10^4 M^−1"}, {"measurement": "Stern–Volmer constant KSV", "setting": "[2]; PDIA3 not reduced form", "result": "240.4 ± 3.6", "unit": "M^−1 × 10^3"}, {"measurement": "Stern–Volmer constant KSV", "setting": "[2]; PDIA3 reduced form", "result": "157.1 ± 1.9", "unit": "M^−1 × 10^3"}, {"measurement": "Kd", "setting": "[2]; PDIA3 not reduced form", "result": 3.9, "unit": "µM"}, {"measurement": "Kd", "setting": "[2]; PDIA3 reduced form", "result": 10, "unit": "µM"}, {"measurement": "Kd", "setting": "[3]", "result": "1 ± 0.2", "unit": "µM"}, {"measurement": "TΔS", "setting": "[3]", "result": "5.6 ± 0.5", "unit": "kcal/mol"}, {"measurement": "ΔH", "setting": "[3]", "result": "-2.7 ± 0.4", "unit": "kcal/mol"}, {"measurement": "Kd", "setting": "[4]", "result": "1.2 ± 0.3", "unit": "µM"}, {"measurement": "TΔS", "setting": "[4]", "result": "6.8 ± 0.4", "unit": "kcal/mol"}, {"measurement": "ΔH", "setting": "[4]", "result": "-1.1 ± 0.2", "unit": "kcal/mol"}, {"measurement": "Tm of first endothermic peak in presence of punicalagin", "setting": "[5]; protein alone 46.0 °C", "result": 42, "unit": "°C"}, {"measurement": "Tm of second endothermic peak in presence of punicalagin", "setting": "[5]; protein alone 61.0 °C", "result": 60, "unit": "°C"}, {"measurement": "Tm of first endothermic peak in presence of punicalagin", "setting": "[6]; protein alone 44.9 °C", "result": 40.4, "unit": "°C"}, {"measurement": "Tm of second endothermic peak in presence of punicalagin", "setting": "[6]; protein alone 53.9 °C", "result": 51.6, "unit": "°C"}, {"measurement": "IC50", "setting": "[7]", "result": "6.1 ± 0.6", "unit": "µM"}, {"measurement": "IC50", "setting": "[8]", "result": "1.5 ± 0.2", "unit": "µM"}, {"measurement": "Ki", "setting": "[9]", "result": 0.39, "unit": "µM"}, {"measurement": "solubility in water", "setting": "[10]", "result": "soluble in water"}]}]}
